Data set [1] deals with T1, Recombinant GST-TAG-MASTL (Homo sapiens, UniProt Q96GX5).
T1 construct: GST; purchased Thermo Fisher Scientific
T1 sequence (Q96GX5 1-879): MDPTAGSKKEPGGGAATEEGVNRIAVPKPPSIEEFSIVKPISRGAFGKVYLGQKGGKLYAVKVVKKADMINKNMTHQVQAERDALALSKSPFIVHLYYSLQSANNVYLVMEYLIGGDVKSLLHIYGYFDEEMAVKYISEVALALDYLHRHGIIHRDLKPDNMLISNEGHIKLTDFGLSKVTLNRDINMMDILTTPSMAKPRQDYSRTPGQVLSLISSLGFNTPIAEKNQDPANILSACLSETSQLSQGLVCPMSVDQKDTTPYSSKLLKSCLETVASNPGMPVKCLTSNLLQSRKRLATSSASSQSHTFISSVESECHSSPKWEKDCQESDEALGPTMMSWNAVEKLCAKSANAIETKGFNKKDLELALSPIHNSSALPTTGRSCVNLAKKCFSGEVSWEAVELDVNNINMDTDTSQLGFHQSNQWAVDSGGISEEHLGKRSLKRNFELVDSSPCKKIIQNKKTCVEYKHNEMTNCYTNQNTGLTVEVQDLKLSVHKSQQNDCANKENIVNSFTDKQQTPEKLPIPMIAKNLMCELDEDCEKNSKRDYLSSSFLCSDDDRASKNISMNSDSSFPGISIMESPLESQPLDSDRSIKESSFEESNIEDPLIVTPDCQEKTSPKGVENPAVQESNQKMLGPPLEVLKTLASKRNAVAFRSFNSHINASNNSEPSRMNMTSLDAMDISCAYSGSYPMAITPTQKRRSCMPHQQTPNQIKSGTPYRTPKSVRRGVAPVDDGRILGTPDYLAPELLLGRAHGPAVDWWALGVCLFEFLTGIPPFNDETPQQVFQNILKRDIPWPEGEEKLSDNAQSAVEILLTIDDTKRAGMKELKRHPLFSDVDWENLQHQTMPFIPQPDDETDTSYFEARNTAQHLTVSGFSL
As to the kind of experiment: HTRF-based kinase assay (HTRF KinEASE assay kit). Particulars: for IC50: HTRF; for activity at 1 µM: compound 1 µM, read-out: MASTL activity (%) HTRF (1 µM); for activity at 10 µM: footnote b: concentration 10 µM, read-out: MASTL activity (%) HTRF. The data set is classed as biochemical. The source says: Recombinant GST-TAG-MASTL (Thermo Fisher Scientific, MA, USA) was used for HTRF-based kinase assays. The HTRF KinEASE assay kit (CisBio, MA, USA) was used according to the manufacturer's instructions.

A further data set concerns pENSA. As to the kind of experiment: pENSA level by immunofluorescence (described method: in vitro kinase analysis with GST-tag-MASTL and His-tag-ENSA). It counts as cell-based. Particulars: for pENSA (%) Immunofluor ecense (1 µM): compound 1 µM. The method, boiled down:
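In vitro kinase reaction using recombinant GST-tagged MASTL with His-tagged ENSA as substrate; phosphorylated ENSA (pENSA) serves as read-out of MASTL activity. Cell lines named: MCF7 breast cancer and MCF10A.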

Another data set can be described thus: in vitro. Particulars: human, mcf10a cells.
Data set [2] concerns MCF7 breast cancer cell lines. As to the kind of experiment: Cell viability analysis, WST-8 assay, MCF7. Particulars: Homo sapiens, MCF7, 72 h; for viability at 1 µM: read-out: Cell viability (%) WST-8, MCF7 (1 µM), compound 1 µM, 72 hours; for viability at 1.25 µM: read-out: Cell viability (%) WST-8, MCF7, footnote a: concentration 1.25 µM, 72 hours. A general note: Tetrazolium dyes change colour on reduction, which living cells bring about.
Procedure: MCF7 breast cancer cell lines and MCF10A normal breast cancer cell lines were treated with serial dilutions of the compounds of the present invention ranging from 1 µM to 15.63 nM for 72 hours. Cell viability was measured by the WST-8 assay (Cyto XTM cell viability assay kit; LPS solution, Daejeon, Korea) according to the manufacturer's instructions.

Where [3] appears, read: read-out: IC50(nM) MASTL activity.

Molecules are shown by their SMILES. Like-named read-outs stand apart in the source and are kept apart here.

This is an account of results in patent publication EP4786466A1, “QUINAZOLINE DERIVATIVE, SALT THEREOF, AND PHARMACEUTICAL COMPOSITION COMPRISING SAME AS ACTIVE INGREDIENT” (Korea Research Institute of Chemical Technology, priority 2023, dated 2025).

A word on the IC50: it is the concentration that gives 50% inhibition.

In the case of `CC(C)(C)OC(=O)N1C2CCC1CN(c1nc(Nc3cc(C4CC4)[nH]n3)c3ccccc3n1)C2` [19' (B), sdqs-butyl 3-(4-((5-cyclopropyl-1G-pyrazol-3-yl)amino)quinazolin-2-yl)-3,8-diazabicyclo[3.2.1]octane-8-carboxylate], the IC50 in data set [1] (setting [3]) turned out to be 282 nM. In addition, in data set [1], the activity at 1 µM was 32.2%. For the same molecule, the “pENSA (%) Immunofluor ecense (1 µM)” value with pENSA came to 74.7%. For the same molecule, the results for the viability at 1 µM (in “in vitro”; in data set [2]) were 101% and 74.8%, respectively.

In the case of `Clc1nc(Nc2cc(C3CC3)[nH]n2)c2ccccc2n1` [compound 2a, 2-chloro-M-(5-cyclopropyl-1G-pyrazol-3-yl)quinazolin-4-amine], the activity at 1 µM in data set [1] worked out at 73.4%. Also, the “pENSA (%) Immunofluor ecense (1 µM)” value with pENSA came out at 105%. In addition, the viability at 1 µM in the data set “in vitro” stood at 93.3%; in data set [2] it was 106%.

With `CC(C)(C)OC(=O)Nc1cccc(Nc2nc(Nc3ccc(CC#N)cc3)nc3ccccc23)c1` [compound 3m, sdqs-butyl (3-((2-((4-(cyanomethyl)phenyl)amino)quinazolin-4-yl)amino)phenyl)carbamate], the activity at 1 µM in data set [1] amounted to 117%. Besides, in the data set on pENSA, the “pENSA (%) Immunofluor ecense (1 µM)” value was 85%. The viability at 1 µM in “in vitro” turned out to be 91.7%; in data set [2], 116%.

For the molecule `Brc1ccc(Nc2nc(Nc3cc(C4CC4)[nH]n3)c3ccccc3n2)cc1` [compound 4b, M^2-(4-bromophenyl)-M^4-(5-cyclopropyl-1G-pyrazol-3-yl)quinazoline-2,4-diamine], the IC50 in data set [1] (unit µM, read-out: IC50 MASTL activity) came out at 1400 nM; in the data set on pENSA (unit µM, read-out: IC50 pENSA), 1.1 µM. Also, the activity at 1 µM in data set [1] worked out at 43.2%. Further, in the data set on pENSA, the “pENSA (%) Immunofluor ecense (1 µM)” value was 82%. The viability at 1 µM worked out at 68.2% in “in vitro” and 47.7% in data set [2].

With `Fc1cc(Br)ccc1Nc1nc(Nc2cc(C3CC3)[nH]n2)c2ccccc2n1` [compound 4c, M^2-(4-bromo-2-fluorophenyl)-M^4-(5-cyclopropyl-1G-pyrazol-3-yl)quinazoline-2,4-diamine], the activity at 1 µM in data set [1] came out at 47.1%. For the same molecule, in the data set with pENSA, the “pENSA (%) Immunofluor ecense (1 µM)” value is given as 69%. Further, the IC50 with pENSA (read-out: IC50(nM) pENSA) was determined as 0.85 µM. Also, the viability at 1 µM turned out to be 83.3% in “in vitro” and 50.8% in data set [2].

In the case of `O=C1Cc2cc(Nc3nc(Nc4cc(C5CC5)[nH]n4)c4ccccc4n3)ccc2N1` [compound 4di, 5-((4-((5-cyclopropyl-1G-pyrazol-3-yl)amino)quinazolin-2-yl)amino)indolin-2-one], the activity at 1 µM in data set [1] came to 38.8%. Besides, the “pENSA (%) Immunofluor ecense (1 µM)” value with pENSA turned out to be 51.1%. Besides, the viability at 1 µM worked out at 12.1% in the data set “in vitro” and 55.4% in data set [2].

Regarding `c1ccc2c(Nc3cc(C4CC4)[nH]n3)nc(Nc3ccc(Cc4nnn[nH]4)cc3)nc2c1` [compound 4e, M^2-(4-((1G-tetrazol-5-yl)methyl)phenyl)-M^4-(5-cyclopropyl-1G-pyrazol-3-yl)quinazoline-2,4-diamine], the IC50 in data set [1] (setting [3]) was determined as 164 nM. Moreover, the activity at 10 µM in data set [1] stood at 15.1%. In addition, the “pENSA (%) Immunofluor ecense (1 µM)” value with pENSA is listed as 90.7%. Also, the viability at 1.25 µM in the data set “in vitro” was 110%; in data set [2], 112%.

For the molecule `CS(=O)(=O)Cc1ccc(Nc2nc(Nc3cc(C4CC4)[nH]n3)c3ccccc3n2)cc1` [compound 4f, M^4-(5-cyclopropyl-1G-pyrazol-3-yl)-M^2-(4-((methylsulfonyl)methyl)phenyl)quinazoline-2,4-diamine], in data set [1], the activity at 10 µM was found to be 29%. The “pENSA (%) Immunofluor ecense (1 µM)” value in the data set on pENSA was 50.5%. Moreover, the results for the IC50 (with pENSA (read-out: IC50(nM) pENSA); in data set [2] (read-out: IC50 Cell viability (MCF7))) were 0.899 µM and 2.3 µM, respectively. The viability at 1.25 µM came to 33% in “in vitro” and 94.5% in data set [2].
